Test results from US20130236504A1, “Delivery System for Enhancing Drug Efficacy” (CLEMSON UNIVERSITY, priority 2012, published 2013).

System: U138 cells
Test: MTT cell viability / cytotoxicity assay in U138 cells
Procedure: Various drug combinations were incubated with U138 cells in cell culture media and the cells were then washed with PBS and added fresh media.

[1] = therapeutic agent at 100 nM compared with non-toxic chemo-adjuvant O6-BG at 100 uM (FIG. 4)

Compound | cell viability [1] | cytotoxicity (free O6-BG 100 μg/ml (FIG. 6)) | cell viability (incubation with various concentrations of O6-BG (FIG. 3))
C=CC(=O)Nc1cc2c(Nc3ccc(F)c(Cl)c3)ncnc2cc1OCCCN1CCOCC1 [canertinib] | cell viability is lower | – | –
CC(=O)O[C@H]1C(=O)[C@@]2(C)[C@H]([C@H](OC(=O)c3ccccc3)[C@]3(O)C[C@H](OC(=O)[C@H](O)[C@@H](NC(=O)c4ccccc4)c4ccccc4)C(C)=C1C3(C)C)[C@]1(OC(C)=O)CO[C@@H]1C[C@@H]2O [paclitaxel] | cell viability is lower | – | –
Nc1nc(OCc2ccccc2)c2nc[nH]c2n1 [O6-BG, O6-Benzylguanine] | – | not cytotoxic | some effect on cell viability at very high concentrations
